{
  "source": "patent US9765116B2",
  "about": "“Inhibitors of the Eph-A receptor and uses thereof” (Carmel Haifa University Economic Corporation Ltd., priority 2013, dated 2017)",
  "key": {"[1]": {"molecular_target": "elongation factor 2 protein (eEF2) (Rattus norvegicus, UniProt P05197)", "experiment": "Pull down experiment with pep-ephrinA4, eEF2 control protein", "assay_type": "binding"}, "EphB2 receptor": {"test_system": "EphB2 receptor", "conditions": "control protein"}, "EphA4 [2]": {"molecular_target": "T1, EphA4 (Rattus norvegicus, UniProt D3ZZK3)", "T1 sequence (D3ZZK3 20-986)": "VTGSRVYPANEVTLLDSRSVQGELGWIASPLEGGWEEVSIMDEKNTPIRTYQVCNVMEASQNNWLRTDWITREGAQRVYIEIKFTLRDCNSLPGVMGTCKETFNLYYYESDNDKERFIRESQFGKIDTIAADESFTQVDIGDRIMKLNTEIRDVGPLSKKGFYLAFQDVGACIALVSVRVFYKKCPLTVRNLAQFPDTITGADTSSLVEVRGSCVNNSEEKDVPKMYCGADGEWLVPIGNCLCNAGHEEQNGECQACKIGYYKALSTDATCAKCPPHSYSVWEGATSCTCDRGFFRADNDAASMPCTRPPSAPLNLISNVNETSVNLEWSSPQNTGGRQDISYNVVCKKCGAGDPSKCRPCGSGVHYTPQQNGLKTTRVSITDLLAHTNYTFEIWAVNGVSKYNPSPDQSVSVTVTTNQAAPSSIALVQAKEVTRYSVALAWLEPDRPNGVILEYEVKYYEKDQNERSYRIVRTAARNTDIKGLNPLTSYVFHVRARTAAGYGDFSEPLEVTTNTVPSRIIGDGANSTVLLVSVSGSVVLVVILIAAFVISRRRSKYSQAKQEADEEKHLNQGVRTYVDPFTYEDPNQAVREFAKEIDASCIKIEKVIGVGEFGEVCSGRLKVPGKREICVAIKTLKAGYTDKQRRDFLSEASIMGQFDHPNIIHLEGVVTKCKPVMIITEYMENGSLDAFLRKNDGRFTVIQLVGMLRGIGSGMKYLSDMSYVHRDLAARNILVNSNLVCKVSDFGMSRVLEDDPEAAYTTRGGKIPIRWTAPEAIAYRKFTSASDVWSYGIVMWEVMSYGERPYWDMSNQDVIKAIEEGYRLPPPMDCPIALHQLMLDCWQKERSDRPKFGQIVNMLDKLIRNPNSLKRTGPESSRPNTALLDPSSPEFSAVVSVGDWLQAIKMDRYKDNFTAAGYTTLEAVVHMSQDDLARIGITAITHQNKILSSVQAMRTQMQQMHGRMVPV", "experiment": "Pull down experiment with pep-ephrinA4 (FIG. 4B), EphA4", "assay_type": "binding", "conditions": "vs pep-control and agarose beads alone"}, "rats": {"test_system": "rats", "conditions": "subcutaneous, single dose 20 μl of 10 μg/μl, 1 hour after fear conditioning, relative to saline", "method": "A fear conditioning in vivo model was performed as in example 3A, however, no cannula was introduced into the rats. […] A fear memory test was performed 24 hours after the injection."}, "EphA4 [3]": {"molecular_target": "T1, EphA4", "experiment": "ephrinA4-induced EphA4 tyrosine phosphorylation in brain slices containing the amygdala (immunoprecipitation, Western blot)", "assay_type": "cell-based", "set-up": "brain slices that contain the amygdala were divide to 3 groups; from tissue; host or cells: brain slices containing the amygdala", "conditions": "brain slices in Ringer's solution stimulated with ephrinA4-Fc for 20 minutes, compared to Ringer's solution control", "method": "Further, brain slices that contain the amygdala were divide to 3 groups: 1) placed in Ringer's solution, 2) placed in Ringer's solution and stimulated with ephrinA4-Fc for 20 minutes or 3) placed in Ringer's solution with pep-ephrinA4 for 20 minutes followed by stimulation with ephrinA4-Fc for 20 minutes (n=3 each). Protein extracts from the slices were immunoprecipitated with anti-EphA4 antibody and subjected to Western blot with anti-EphA4 or anti-phosphotyrosine antibodies."}},
  "data": [
    {"substance": "Ac-RRQRYTPFPLGFE-Lys(Biotin)-NH2-0H [peptide 1]", "values": [
      {"measurement": "interaction with elongation factor 2 protein (eEF2) (pull down)", "setting": "[1]", "value": "did not interact"},
      {"measurement": "interaction with EphB2 receptor (pull down)", "setting": "EphB2 receptor", "value": "did not interact"},
      {"measurement": "interaction with EphA4 (pull down)", "setting": "EphA4 [2]", "value": "interacts"},
      {"measurement": "freezing 24 hours after training (long term fear memory)", "setting": "male Sprague Dawley rats; 0.5 μl of 10 μg/μl per amygdala into LA 30 minutes before training, vs saline, peptide 2 and misplaced peptide 1", "value": "froze significantly less"},
      {"measurement": "rate of fear reduction over the trials", "setting": "male Sprague Dawley rats; LA microinjection, compared to controls", "value": "did not alter"},
      {"measurement": "freezing 1 hour after training (formation of short term memory)", "setting": "male Sprague Dawley rats; LA microinjection, no main effect for groups (p>0.4)", "value": "does not inhibit"},
      {"measurement": "freezing in fear memory test 24 hours after the injection", "setting": "rats", "value": "significantly reducing freezing"}
    ]},
    {"substance": "ephrinA4: ephrinA4-Fc used to stimulate brain slices for 20 minutes (RRQRYTPFPLGFEK)", "values": [
      {"measurement": "EphA4 phosphorylation after stimulation", "setting": "EphA4 [3]", "value": "significant increase"}
    ]},
    {"substance": "Ac-RRWSGYEACTAEG-Lys(Biotin)-NH2-0H [peptide 2, reference compound]", "values": [
      {"measurement": "interaction with EphA4 (pull down)", "setting": "EphA4 [2]", "value": "not"}
    ]}
  ]
}
